Laboratory results: ChEMBL document CHEMBL6074662, “Antibacterial, Antibiofilm, and Anti-inflammatory Effects of a Novel Thrombin-Derived Peptide in Sepsis Models: Insights into Underlying Mechanisms” (J Med Chem, 2024)
Calls of active or inactive are those of the source. The rule behind the calls is not given here.

What was measured:
[1] = tested on: Escherichia coli; assay: Antibacterial activity against Escherichia coli KCTC 1682 incubated for 24 hrs in presence of CaCl2 by CLSI based broth microdilution method; type: functional
[2] = tested on: Pseudomonas aeruginosa; assay: Inhibition of biofilm formation in multi-drug resistant Pseudomonas aeruginosa CCARM 2095 at 4 to 8 uM by crystal violet staining based analysis relative to control; type: functional; settings: dose 4-8 µM
[3] = tested on: Acinetobacter baumannii; assay: Antibacterial activity against carbapenem-resistant Acinetobacter baumannii CCARM 12005 incubated for 24 hrs by CLSI based broth microdilution method; type: functional
[4] = Cytotoxicity against mouse RAW264.7 cells assessed as cell survival at 10 to 20 uM incubated for 16 hrs by WST-8 assay relative to control; type: toxicity, cell-based; settings: dose 10-20 µM, read-out: Survival
[5] = tested on: Escherichia coli; assay: Induction of inner membrane permeabilization in Escherichia coli KCTC 1682 at MIC by PI staining based flow cytometry (reference value: 1.51 %); type: functional
[6] = tested on: Pseudomonas aeruginosa; assay: Antibacterial activity against multidrug-resistant Pseudomonas aeruginosa CCARM 2095 incubated for 24 hrs by CLSI based broth microdilution method; type: functional
[7] = tested on: Escherichia coli; assay: Antibacterial activity against Escherichia coli KCTC 1682 assessed as zone of clearance incubated for 4 hrs in presence of proteinase K by radical diffusion assay; type: functional, organism-based
[8] = tested on: Bacillus subtilis; assay: Antibacterial activity against Bacillus subtilis KCTC 3068 incubated for 24 hrs by CLSI based broth microdilution method; type: functional
[9] = tested on: Escherichia coli; assay: Induction of morphological change in Escherichia coli KCTC 1682 assessed as distorted irregular cells at MIC incubated for 4 hrs by SEM analysis; type: functional, organism-based
[10] = tested on: Escherichia coli; assay: Antibacterial activity against Escherichia coli KCTC 1682 incubated for 24 hrs by CLSI based broth microdilution method; type: functional
[11] = tested on: RAW264.7; assay: Anti-inflammatory activity in mouse RAW264.7 cells assessed as inhibition of LPS-induced NO production at 2.5 uM pretreated for 1 hr followed by LPS treatment for 16 hrs by Griess assay relative to control; type: functional; settings: time 17 hrs
[12] = tested on: RAW264.7; assay: Anti-inflammatory activity in mouse RAW264.7 cells assessed as decrease in LPS-induced ROS production at 2.5 uM pretreated for 1 hr followed by LPS treatment for 16 hrs by DCFDA staining based analysis relative to control; type: functional; settings: time 17 hrs
[13] = tested on: Pseudomonas aeruginosa; assay: Synergistic antibacterial activity against multi-drug resistant Pseudomonas aeruginosa CCARM 2095 assessed as MIC of Oxacillin incubated for 24 hrs by broth microdilution method; type: functional
[14] = tested on: Staphylococcus aureus; assay: Antibacterial activity against methicillin-resistant Staphylococcus aureus CCARM 3095 incubated for 24 hrs by CLSI based broth microdilution method; type: functional
[15] = tested on: Mus musculus; assay: Antiseptic activity in sepsis shock ICR mouse model infected with carbapenem-resistant Acinetobacter baumannii assessed as reduction in bacterial count in lungs at 1 mg/kg, ip pretreated with compound for 1 hr followed by bacterial infection measured after 16 hrs relative to control; type: functional; set-up: scale not given: the % may be the effect or the level left; settings: time 17 hrs
[16] = biological target: T1, Toll-like receptor 4 (Mus musculus) (UniProt Q9QUK6); assay: Inhibition of LPS-induced TLR4 activation in mouse RAW264.7 cells assessed as decrease in ERK phosphorylation at 2 uM pretreated for 1 hr followed by LPS treatment for 30 mins by Western blot analysis relative to control; type: cell-based; settings: time 90.0 min
T1 sequence (whole entry): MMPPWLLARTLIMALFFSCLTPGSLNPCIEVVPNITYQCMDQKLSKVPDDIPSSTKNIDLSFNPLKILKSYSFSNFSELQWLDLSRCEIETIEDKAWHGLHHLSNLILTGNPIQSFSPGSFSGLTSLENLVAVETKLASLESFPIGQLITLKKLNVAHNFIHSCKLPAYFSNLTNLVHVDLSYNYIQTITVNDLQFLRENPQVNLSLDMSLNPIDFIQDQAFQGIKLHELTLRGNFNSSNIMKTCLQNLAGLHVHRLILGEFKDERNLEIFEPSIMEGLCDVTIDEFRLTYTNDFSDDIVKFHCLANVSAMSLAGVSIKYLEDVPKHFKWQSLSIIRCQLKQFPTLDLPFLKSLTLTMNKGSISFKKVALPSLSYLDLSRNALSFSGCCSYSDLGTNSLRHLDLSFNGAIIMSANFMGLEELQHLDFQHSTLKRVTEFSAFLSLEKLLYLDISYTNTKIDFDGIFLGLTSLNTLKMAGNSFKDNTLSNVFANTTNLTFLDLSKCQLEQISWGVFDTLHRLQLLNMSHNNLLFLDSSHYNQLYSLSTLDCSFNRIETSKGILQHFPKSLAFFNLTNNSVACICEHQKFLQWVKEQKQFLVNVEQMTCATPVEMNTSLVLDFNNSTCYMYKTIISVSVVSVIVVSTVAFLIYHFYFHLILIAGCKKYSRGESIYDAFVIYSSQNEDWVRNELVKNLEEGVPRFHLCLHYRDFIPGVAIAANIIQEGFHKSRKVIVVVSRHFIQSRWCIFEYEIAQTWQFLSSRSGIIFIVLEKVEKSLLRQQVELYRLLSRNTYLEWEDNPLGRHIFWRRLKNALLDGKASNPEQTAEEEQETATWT

[17] = tested on: Lipopolysaccharide (LPS); assay: Displacement of BODIPY-TR-cadaverine from cell-free LPS (unknown origin) incubated for 30 mins by fluorescence based assay; settings: dose <= 32.0 µM
[18] = tested on: Acinetobacter baumannii; assay: Antibacterial activity against carbapenem-resistant Acinetobacter baumannii 1707 incubated for 24 hrs by CLSI based broth microdilution method; type: functional, organism-based
[19] = tested on: Mus musculus; assay: Antiseptic activity in sepsis shock ICR mouse model infected with carbapenem-resistant Acinetobacter baumannii assessed as decrease in AST level in serum at 1 mg/kg, ip pretreated with compound for 1 hr followed by bacterial infection measured after 16 hrs relative to control; type: functional; set-up: scale not given: the % may be the effect or the level left; settings: time 17 hrs
[20] = tested on: Mus musculus; assay: (§1) Antiseptic activity in sepsis shock ICR mouse model infected with carbapenem-resistant Acinetobacter baumannii assessed as reduction in bacterial count in liver at 1 mg/kg, ip pre-infected with bacteria followed by compound administration 3 hrs post-infection measured after 16 hrs relative to control; type: functional; set-up: scale not given: the % may be the effect or the level left
[21] = tested on: RAW264.7; assay: Displacement of FITC-labeled LPS pre-bound to surface receptors of mouse RAW264.7 cells incubated for 1 hr by flow cytometry; type: cell-based
[22] = tested on: Mus musculus; assay: as §1, with “kidney” for “liver”, “1 hr” for “3 hrs”; type: functional; set-up: scale not given: the % may be the effect or the level left
[23] = Effect on secondary structure of drug in TFE assessed as formation of left-handed alpha-helical conformation at 150 uM by CD analysis; type: physicochemical
[24] = tested on: Mus musculus; assay: Antiseptic activity in sepsis shock ICR mouse model infected with carbapenem-resistant Acinetobacter baumannii assessed as reduction in bacterial count in kidney at 1 mg/kg, ip pretreated with compound for 1 hr followed by bacterial infection measured after 16 hrs relative to control; type: functional; set-up: scale not given: the % may be the effect or the level left; settings: time 17 hrs
[25] = tested on: Pseudomonas aeruginosa; assay: Bactericidal activity against multidrug-resistant Pseudomonas aeruginosa CCARM 2095 at 0.5 to 2 uM incubated for 12 hrs by time-kill assay; type: functional, organism-based; settings: dose 0.5-2 µM
[26] = tested on: Mus musculus; assay: Antiseptic activity in sepsis shock ICR mouse model infected with carbapenem-resistant Acinetobacter baumannii assessed as reduction in serum IL-6 level at 1 mg/kg, ip pretreated with compound for 3 hrs followed by bacterial infection measured after 16 hrs relative to control; type: functional; set-up: scale not given: the % may be the effect or the level left; settings: time 19 hrs
[27] = tested on: Mus musculus; assay: as §1, with “kidney” for “liver”; type: functional; set-up: scale not given: the % may be the effect or the level left

| Substance | MIC [1] [µM] | inhibition (INH) [2] [%] | MIC [3] [µM] | viability at 16 h, up to 20 µM [4] [%] | Activity [5] [%] | MIC [6] [µM] | MIC [8] [µM] | Activity [9] | MIC [10] [µM] | inhibition at 2.5 µM [11] [%] | inhibition at 2.5 µM [12] [%] | MIC [13] [µM] | MIC [14] [µM] | other results |
| --- | --- | --- | --- | --- | --- | --- | --- | --- | --- | --- | --- | --- | --- | --- |
| H-GVFRLKKWIKKVIKKWGK-NH2 | 32 | >50 | 4 | > 95 | ~100 | 8 | 4 | Active | 16 | 80.7 | 14.9 | 128 | 8 | Activity [7]: inactive |
| H-GVFRLKKWLKKVKKWGK-NH2 | 16 | >50 | 4 | > 95 | ~100 | 8 | 4 | Active | 16 | 80.3 | 38.2 | 128 | 8 | Activity [15]: 99%; inhibition [16]: 27%; Activity [17]: Dose-dependent-effect; Activity Similar To Ll-37; Activity [18]: Active; Activity [19]: 31.8%; Activity [20]: 90.7%; Activity [21]: Active; Activity Similar To Ll-37; Activity [22]: 96.7%; Activity [23]: Active; Activity [24]: 99.6%; Activity [25]: inactive; Activity [26]: 99.9%; Activity [27]: 91.8% |
